Data from patent US20230295200A1 (REGENTS OF THE UNIVERSITY OF MICHIGAN, priority 2022, published 2023).

Biological target: T1, STAT6 protein (Homo sapiens, UniProt P42226)
T1 sequence (P42226 1-847): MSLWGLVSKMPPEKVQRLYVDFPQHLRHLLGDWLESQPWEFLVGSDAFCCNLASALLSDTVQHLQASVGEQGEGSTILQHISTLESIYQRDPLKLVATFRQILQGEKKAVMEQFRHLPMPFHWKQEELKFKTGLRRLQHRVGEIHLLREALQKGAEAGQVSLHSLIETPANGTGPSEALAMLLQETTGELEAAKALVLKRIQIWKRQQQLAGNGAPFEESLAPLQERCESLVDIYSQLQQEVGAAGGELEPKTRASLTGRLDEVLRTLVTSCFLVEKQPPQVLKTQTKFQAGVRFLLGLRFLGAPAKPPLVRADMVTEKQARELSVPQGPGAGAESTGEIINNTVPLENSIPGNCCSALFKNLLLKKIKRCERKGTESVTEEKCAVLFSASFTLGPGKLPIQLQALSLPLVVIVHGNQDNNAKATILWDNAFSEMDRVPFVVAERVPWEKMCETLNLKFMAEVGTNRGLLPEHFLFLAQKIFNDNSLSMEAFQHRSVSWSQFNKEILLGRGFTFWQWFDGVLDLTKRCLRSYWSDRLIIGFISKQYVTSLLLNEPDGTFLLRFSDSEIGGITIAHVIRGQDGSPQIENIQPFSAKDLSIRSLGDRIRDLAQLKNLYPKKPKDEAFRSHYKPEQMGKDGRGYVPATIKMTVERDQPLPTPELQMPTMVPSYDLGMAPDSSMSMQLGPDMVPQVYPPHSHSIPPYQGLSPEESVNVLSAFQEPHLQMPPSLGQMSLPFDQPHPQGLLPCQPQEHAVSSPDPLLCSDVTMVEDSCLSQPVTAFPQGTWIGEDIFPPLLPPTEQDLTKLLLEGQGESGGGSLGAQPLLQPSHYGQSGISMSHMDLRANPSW
Assay: Fluorescence polarization (FP) binding assay, STAT6
Conditions: FP competition, 5 nM fluorescein-labeled tracer, 200 nM protein, PBS pH7.4; read-out: Binding STAT6
In short: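 Each well holds 200 nM STAT5 and/or STAT6 with 5 nM fluorescent tracer in PBS pH 7.4 (0.01% BGG, 0.01% Tween-20, 2 mM DTT). Binding reaches equilibrium over 1 h at room temperature after brief shaking, and polarization data are fitted nonlinearly.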

Ki [nM] | Structure (SMILES)
100 to 1000 | CC(C)(C)[C@H](NC(=O)c1cc2cc(C(F)(F)P(=O)(O)O)ccc2s1)C(=O)N1Cc2ccccc2C[C@H]1C(=O)N1CCOC(c2ccccc2F)C1 (stereo partly drawn) [Compound 230, (difluoro(2-(((2S)-1-((3S)-3-(2-(2-fluorophenyl)morpholine-4-carbonyl)-3,4-dihydroisoquinolin-2(1H)-yl)-3,3-dimethyl-1-oxobutan-2-yl)carbamoyl)benzo[b]thiophen-5-yl)methyl)phosphonic acid]
100 to 1000 | CC(C)(C)[C@H](NC(=O)c1cc2cc(C(F)(F)P(=O)(O)O)ccc2s1)C(=O)N1Cc2ccccc2C[C@H]1C(=O)N1CCOC(c2ccc(F)c(F)c2)C1 (stereo partly drawn) [Compound 238, ((2-(((2S)-1-((3S)-3-(2-(3,4-difluorophenyl)morpholine-4-carbonyl)-3,4-dihydroisoquinolin-2(1H)-yl)-3,3-dimethyl-1-oxobutan-2-yl)carbamoyl)benzo[b]thiophen-5-yl)difluoromethyl)phosphonic acid]
> 10000 | CC(=O)N1CC[C@H]2CC[C@@H](C(=O)N3CCc4cc(F)ccc4C3)N2C(=O)[C@@H](NC(=O)c2cc3cc(C(F)(F)P(=O)(O)O)ccc3[nH]2)C1 [Compound 344, ((2-(((5S,8,10aR)-3-acetyl-8-(6-fluoro-1,2,3,4-tetrahydroisoquinoline-2-carbonyl)-6-oxodecahydropyrrolo[1,2-a][1,5]diazocin-5-yl)carbamoyl)-1H-indol-5-yl)difluoromethyl)phosphonic acid]
100 to 1000 | CN(C)CC[C@H](NC(=O)c1cc2cc(C(F)(F)P(=O)(O)O)ccc2s1)C(=O)N1CCC[C@H]1C(=O)N1CCO[C@H](c2ccccc2)C1 [Compound 275, ((2-(((S)-4-(dimethylamino)-1-oxo-1-((S)-2-((R)-2-phenylmorpholine-4-carbonyl)pyrrolidin-1-yl)butan-2-yl)carbamoyl)benzo[b]thiophen-5-yl)difluoromethyl)phosphonic acid]
> 10000 | CC(=O)N1CC[C@H]2CC[C@@H](C(=O)N3CCc4ccccc4C3)N2C(=O)[C@@H](NC(=O)c2ccc3ccc(C(F)(F)P(=O)(O)O)cc3c2)C1 [Compound 334, ((7-(((5S,8S,10aR)-3-acetyl-6-oxo-8-(1,2,3,4-tetrahydroisoquinoline-2-carbonyl)decahydropyrrolo[1,2-a][1,5]diazocin-5-yl)carbamoyl)naphthalen-2-yl)difluoromethyl)phosphonic acid]
100 to 1000 | O=C(N[C@@H](Cc1ccc2ccccc2c1)C(=O)N1CCC[C@H]1C(=O)N1CCO[C@H](c2ccccc2)C1)c1cc2cc(C(F)(F)P(=O)(O)O)ccc2s1 [Compound 285, (difluoro(2-(((S)-3-(naphthalen-2-yl)-1-oxo-1-((S)-2-((R)-2-phenylmorpholine-4-carbonyl)pyrrolidin-1-yl)propan-2-yl)carbamoyl)benzo[b]thiophen-5-yl)methyl)phosphonic acid]
> 10000 | CC(=O)N1CC[C@H]2CC[C@@H](C(=O)N3CCc4ccccc4C3)N2C(=O)[C@@H](NC(=O)c2cc3cc(C(F)(F)P(=O)(O)O)ccc3s2)C1 [Compound 333, ((2-(((5S,8S,10aR)-3-acetyl-6-oxo-8-(1,2,3,4-tetrahydroisoquinoline-2-carbonyl)decahydropyrrolo[1,2-a][1,5]diazocin-5-yl)carbamoyl)benzo[b]thiophen-5-yl)difluoromethyl)phosphonic acid]
100 to 1000 | O=C(N[C@@H](CC1CCN(CCc2ccccc2)CC1)C(=O)N1CCC[C@H]1C(=O)N1CCO[C@H](c2ccccc2)C1)c1cc2cc(C(F)(F)P(=O)(O)O)ccc2s1 [Compound 296, (difluoro(2-(((S)-1-oxo-3-(1-phenethylpiperidin-4-yl)-1-((S)-2-((R)-2-phenylmorpholine-4-carbonyl)pyrrolidin-1-yl)propan-2-yl)carbamoyl)benzo[b]thiophen-5-yl)methyl)phosphonic acid]
100 to 1000 | CC(C)(C)[C@H](NC(=O)c1cc2cc(C(F)(F)P(=O)(O)O)ccc2s1)C(=O)N1Cc2ccccc2C[C@H]1C(=O)N1CCCC(c2cccc(F)c2)C1 (stereo partly drawn) [Compound 245, (difluoro(2-(((2S)-1-((3S)-3-(3-(3-fluorophenyl)piperidine-1-carbonyl)-3,4-dihydroisoquinolin-2(1H)-yl)-3,3-dimethyl-1-oxobutan-2-yl)carbamoyl)benzo[b]thiophen-5-yl)methyl)phosphonic acid]
> 10000 | CC(=O)N1CC[C@H]2CC[C@@H](C(=O)N3CCCC34CCCC4)N2C(=O)[C@@H](NC(=O)c2cc3cc(C(F)(F)P(=O)(O)O)ccc3s2)C1 [Compound 387, ((2-(((5S,8S,10aR)-3-acetyl-6-oxo-8-(1-azaspiro[4.4]nonane-1-carbonyl)decahydropyrrolo[1,2-a][1,5]diazocin-5-yl)carbamoyl)benzo[b]thiophen-5-yl)difluoromethyl)phosphonic acid]
100 to 1000 | COc1ccc(C[C@H](NC(=O)c2cc3cc(C(F)(F)P(=O)(O)O)ccc3s2)C(=O)N2CCC[C@H]2C(=O)N2CCO[C@H](c3ccccc3)C2)cc1 [Compound 284, (difluoro(2-(((S)-3-(4-methoxyphenyl)-1-oxo-1-((S)-2-((R)-2-phenylmorpholine-4-carbonyl)pyrrolidin-1-yl)propan-2-yl)carbamoyl)benzo[b]thiophen-5-yl)methyl)phosphonic acid]
100 to 1000 | CCOC(=O)CO[C@H]1C[C@@H](C(=O)N(CCC(=O)N(C)C)c2ccc(Br)cc2)N(C(=O)[C@@H](NC(=O)c2cc3cc(C(F)(F)P(=O)(O)O)ccc3s2)C(C)(C)C)C1 [Compound 57, ((2-(((S)-1-((2S,4S)-2-((4-bromophenyl)(3-(dimethylamino)-3-oxopropyl)carbamoyl)-4-(2-ethoxy-2-oxoethoxy)pyrrolidin-1-yl)-3,3-dimethyl-1-oxobutan-2-yl)carbamoyl)benzo[b]thiophen-5-yl)difluoromethyl)phosphonic acid]
< 100 | CC(C)(C)[C@H](NC(=O)c1cc2cc(C(F)(F)P(=O)(O)O)ccc2s1)C(=O)N1Cc2ccccc2C[C@H]1C(=O)N1CCSC(c2ccccc2)C1 (stereo partly drawn) [Compound 223, ((2-(((2S)-3,3-dimethyl-1-oxo-1-((3S)-3-(2-phenylthiomorpholine-4-carbonyl)-3,4-dihydroisoquinolin-2(1H)-yl)butan-2-yl)carbamoyl)benzo[b]thiophen-5-yl)difluoromethyl)phosphonic acid]
> 10000 | CC(=O)N1CC[C@H]2CC[C@@H](C(=O)N3CCc4ccc(F)cc4C3)N2C(=O)[C@@H](NC(=O)c2cc3cc(C(F)(F)P(=O)(O)O)ccc3[nH]2)C1 [Compound 355, ((2-(((5S,8S,10aR)-3-acetyl-8-(7-fluoro-1,2,3,4-tetrahydroisoquinoline-2-carbonyl)-6-oxodecahydropyrrolo[1,2-a][1,5]diazocin-5-yl)carbamoyl)-1H-indol-5-yl)difluoromethyl)phosphonic acid]
100 to 1000 | CN(C)CCC[C@H](NC(=O)c1cc2cc(C(F)(F)P(=O)(O)O)ccc2s1)C(=O)N1CCC[C@H]1C(=O)N1CCO[C@H](c2ccccc2)C1 [Compound 274, ((2-(((S)-5-(dimethylamino)-1-oxo-1-((S)-2-((R)-2-phenylmorpholine-4-carbonyl)pyrrolidin-1-yl)pentan-2-yl)carbamoyl)benzo[b]thiophen-5-yl)difluoromethyl)phosphonic acid]
100 to 1000 | CC(C)(C)[C@H](NC(=O)c1cc2cc(C(F)(F)P(=O)(O)O)ccc2s1)C(=O)N1Cc2ccccc2C[C@H]1C(=O)N1CCOC(c2ccccc2Cl)C1 (stereo partly drawn) [Compound 232, ((2-(((2S)-1-((3S)-3-(2-(2-chlorophenyl)morpholine-4-carbonyl)-3,4-dihydroisoquinolin-2(1H)-yl)-3,3-dimethyl-1-oxobutan-2-yl)carbamoyl)benzo[b]thiophen-5-yl)difluoromethyl)phosphonic acid]
100 to 1000 | O=C(N[C@H](C(=O)N1CCC[C@H]1C(=O)N1CCO[C@H](c2ccccc2)C1)C1CCNCC1)c1cc2cc(C(F)(F)P(=O)(O)O)ccc2s1 [Compound 269, (difluoro(2-(((S)-2-oxo-2-((S)-2-((R)-2-phenylmorpholine-4-carbonyl)pyrrolidin-1-yl)-1-(piperidin-4-yl)ethyl)carbamoyl)benzo[b]thiophen-5-yl)methyl)phosphonic acid]
100 to 1000 | CC(C)(C)[C@H](NC(=O)c1cc2cc(C(F)(F)P(=O)(O)O)ccc2s1)C(=O)N1Cc2ccccc2C[C@H]1C(=O)N1CCS(=O)(=O)[C@@H](c2ccccc2)C1 [Compound 225, ((2-(((S)-1-((S)-3-((S)-1,1-dioxido-2-phenylthiomorpholine-4-carbonyl)-3,4-dihydroisoquinolin-2(1H)-yl)-3,3-dimethyl-1-oxobutan-2-yl)carbamoyl)benzo[b]thiophen-5-yl)difluoromethyl)phosphonic acid]
